Test [1] has as its target NS5B-621 from HCV GT-1b Con-1 (Hepatitis C virus genotype 1b, UniProt Q9WMX2). In words: NS5B RNA-dependent RNA polymerase inhibition assay. The note with it: 1 μM NTP substrates including either [32P]-CTP or [32P]-UTP, columns not distinguished. The test is classed as biochemical. The protocol:
Compounds were assayed for inhibition of NS5B-621 from HCV GT-1b Con-1. Reactions included purified recombinant enzyme, 1 u/μL negative-strand HCV IRES RNA template, and 1 μM NTP substrates including either [^32P]-CTP or [^32P]-UTP. Assay plates were incubated at 27° C. for 1 hour before quench. [^32P] incorporation into macromolecular product was assessed by filter binding.

The test system of test [2] is HCV Replicon 1a-H77. The test is described as follows: HCV replicon GT-1a luciferase assay. The test is classed as cell-based. The note with it: Hepatitis C virus, GT1A, GT-1a H77 replicon. (In antiviral work, replicon cells carry a viral genome segment that copies itself.)
Test [3] relates to HCV Replicon 1b-Con1. The test is described as follows: HCV replicon GT-1b luciferase assay. The test is classed as cell-based. To be noted: Hepatitis C virus, GT1B, read-out: HCV Replicon 1b-Con1 EC50. From the text: Cell Culture—The reporter cell line Huh-luc/neo-ET was obtained from Dr. Ralf Bartenschlager (Department of Molecular Virology, Hygiene Institute, University of Heidelberg, Germany) by ImQuest BioSciences through a specific licensing agreement. This cell line harbors the persistently replicating I389luc-ubi-neo/NS3-3′/ET replicon containing the firefly luciferase gene-ubiquitin-neomycin phosphotransferase fusion protein and EMCV IRES driven NS3-5B HCV coding sequences containing the ET tissue culture adaptive mutations (E1202G, Tl2081, and K1846T). A stock culture of the Huh-luc/neo-ET was expanded by culture in DMEM supplemented with I 0% FCS, 2 mM glutamine, penicillin ([…])/streptomycin (100 μg/mL) and I× nonessential amino acids plus 1 mg/mL G418. The cells were split 1:4 and cultured for two passages in the same media plus 250 μg/mL G418. […] 5% C02 then anti-HCV activity was measured by luciferase endpoint. […]
Measurement of Virus Replication-HCV replication from the replicon assay system was measured by luciferase activity using the britelite plus luminescence reporter gene kit according to the manufacturer's instructions (Perkin Elmer, Shelton, Conn.). […] The well contents were transferred to a white 96-well plate and luminescence was measured within 15 minutes using the Wallac 1450Microbeta Trilux liquid scintillation counter. […]

As a reminder, the IC50 is the concentration needed to halve the response being measured. High values mean weaker potency in that assay, low ones greater potency in that assay. In general, EC50 refers to the concentration at which the effect is half-maximal.

Structures are written as SMILES.

Consider `O=c1ccn([C@@H]2O[C@H](COP(=O)(O)OP(=O)(O)OP(=O)(O)O)[C@@H](O)[C@]2(O)CF)c(=O)[nH]1` [DRIVE-0060], for which the concentration for half-maximal inhibition (IC50) in test [1] (first IC50 column) was determined as 1000 nM; in test [1] (second IC50 column), 13400 nM.

Take `CC(C)OC(=O)[C@H](C)N[P@](=O)(OC[C@H]1O[C@@H](n2ccc(=O)[nH]c2=O)[C@@](O)(CF)[C@@H]1O)Oc1ccccc1` [DRIVE-0087]: the EC50 in test [2] was 540 nM; in test [3] it was 750 nM.

Source of the values: patent US20190085013A1, “NUCLEOTIDE AND NUCLEOSIDE THERAPEUTIC COMPOSITIONS AND USES RELATED THERETO” (EMORY UNIVERSITY, priority 2016, published 2019).
